Data as given in patent US8124610B2, “Sodium channel inhibitors” (Icagen Inc., priority 2007, dated 2012).

How the values were obtained:
hSCN3A = target: T1, hSCN3A (Homo sapiens, UniProt Q9NY46); experiment: Whole-cell patch-clamp electrophysiology (conventional or PatchXpress), HEK cells expressing hSCN3A, estimated IC-50; assay type: cell-based; conditions: estimated IC-50, HEK cells expressing hSCN3A; class symbols or bounds; read-out: SCN3A EIC-50
T1 construct: expressed in transfected cells
Summary of the method: (§1)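 Current through each channel was evoked by a 20 ms step to 0 mV following an 8 s conditioning prepulse at the cell's own half-inactivation voltage. Recordings used HEK lines stably expressing the channel, conventional or PatchXpress patch clamp, room temperature, pH 7.4 bath; inhibition taken as pre/post-compound amplitude change.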

hSCN9A = target: T2, hSCN9A (Homo sapiens, UniProt Q15858); experiment: Whole-cell patch-clamp electrophysiology (conventional or PatchXpress), HEK cells expressing hSCN9A, estimated IC-50; assay type: cell-based; conditions: estimated IC-50, HEK cells expressing hSCN9A; class symbols or bounds; read-out: SCN9A EIC-50
T2 construct: expressed in transfected cells
Summary of the method: as §1

T1 sequence (Q9NY46 whole entry): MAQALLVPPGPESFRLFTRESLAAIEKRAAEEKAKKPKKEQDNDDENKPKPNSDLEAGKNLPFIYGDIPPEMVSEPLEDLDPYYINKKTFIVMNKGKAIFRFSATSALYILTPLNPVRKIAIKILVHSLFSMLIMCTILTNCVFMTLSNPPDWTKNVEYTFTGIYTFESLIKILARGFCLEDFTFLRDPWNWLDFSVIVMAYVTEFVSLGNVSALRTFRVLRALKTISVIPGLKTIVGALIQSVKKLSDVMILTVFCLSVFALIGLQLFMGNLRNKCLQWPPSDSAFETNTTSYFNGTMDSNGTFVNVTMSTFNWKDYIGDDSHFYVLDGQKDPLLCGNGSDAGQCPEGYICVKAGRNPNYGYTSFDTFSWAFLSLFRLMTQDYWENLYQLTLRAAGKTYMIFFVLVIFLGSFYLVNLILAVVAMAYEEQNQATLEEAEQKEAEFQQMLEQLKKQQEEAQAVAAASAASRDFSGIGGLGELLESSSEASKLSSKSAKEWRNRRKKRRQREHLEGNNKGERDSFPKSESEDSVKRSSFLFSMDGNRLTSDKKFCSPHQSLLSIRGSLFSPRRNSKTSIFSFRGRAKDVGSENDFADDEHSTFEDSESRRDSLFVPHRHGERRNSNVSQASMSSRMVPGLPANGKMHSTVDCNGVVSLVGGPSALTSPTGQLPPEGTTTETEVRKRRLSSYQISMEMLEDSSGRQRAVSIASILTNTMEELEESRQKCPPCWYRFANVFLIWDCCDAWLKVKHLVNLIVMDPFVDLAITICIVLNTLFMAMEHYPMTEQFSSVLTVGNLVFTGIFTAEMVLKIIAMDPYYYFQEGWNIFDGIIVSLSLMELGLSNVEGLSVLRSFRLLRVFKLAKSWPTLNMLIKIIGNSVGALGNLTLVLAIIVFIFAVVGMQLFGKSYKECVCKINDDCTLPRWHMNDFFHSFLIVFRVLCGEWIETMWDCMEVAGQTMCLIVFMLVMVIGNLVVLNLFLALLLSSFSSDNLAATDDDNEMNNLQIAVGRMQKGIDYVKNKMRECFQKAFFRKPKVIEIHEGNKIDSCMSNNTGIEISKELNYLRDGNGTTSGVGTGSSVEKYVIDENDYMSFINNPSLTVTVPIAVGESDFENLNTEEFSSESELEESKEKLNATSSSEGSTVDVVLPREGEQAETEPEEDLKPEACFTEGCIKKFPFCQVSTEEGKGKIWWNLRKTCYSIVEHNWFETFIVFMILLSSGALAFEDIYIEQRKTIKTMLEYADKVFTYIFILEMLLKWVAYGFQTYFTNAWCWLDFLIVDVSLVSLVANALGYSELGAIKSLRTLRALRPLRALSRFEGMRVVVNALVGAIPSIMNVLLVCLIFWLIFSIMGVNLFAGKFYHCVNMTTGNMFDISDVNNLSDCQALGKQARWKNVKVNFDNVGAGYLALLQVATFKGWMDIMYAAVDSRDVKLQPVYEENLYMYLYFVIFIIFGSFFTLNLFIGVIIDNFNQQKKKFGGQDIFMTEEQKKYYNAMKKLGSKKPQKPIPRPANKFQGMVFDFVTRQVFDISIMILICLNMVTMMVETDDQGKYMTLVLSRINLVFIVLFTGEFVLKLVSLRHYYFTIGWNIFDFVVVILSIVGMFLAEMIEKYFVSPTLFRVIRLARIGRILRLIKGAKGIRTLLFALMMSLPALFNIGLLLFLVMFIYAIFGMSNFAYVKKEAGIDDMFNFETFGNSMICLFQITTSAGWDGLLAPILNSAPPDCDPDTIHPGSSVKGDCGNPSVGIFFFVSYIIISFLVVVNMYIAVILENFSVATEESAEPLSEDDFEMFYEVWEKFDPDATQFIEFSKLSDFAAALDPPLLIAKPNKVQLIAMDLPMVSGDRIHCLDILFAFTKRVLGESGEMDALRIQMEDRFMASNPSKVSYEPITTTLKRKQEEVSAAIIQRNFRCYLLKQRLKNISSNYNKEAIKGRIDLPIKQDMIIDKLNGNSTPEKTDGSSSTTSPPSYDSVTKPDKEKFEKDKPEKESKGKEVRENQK
T2 sequence (Q15858 whole entry): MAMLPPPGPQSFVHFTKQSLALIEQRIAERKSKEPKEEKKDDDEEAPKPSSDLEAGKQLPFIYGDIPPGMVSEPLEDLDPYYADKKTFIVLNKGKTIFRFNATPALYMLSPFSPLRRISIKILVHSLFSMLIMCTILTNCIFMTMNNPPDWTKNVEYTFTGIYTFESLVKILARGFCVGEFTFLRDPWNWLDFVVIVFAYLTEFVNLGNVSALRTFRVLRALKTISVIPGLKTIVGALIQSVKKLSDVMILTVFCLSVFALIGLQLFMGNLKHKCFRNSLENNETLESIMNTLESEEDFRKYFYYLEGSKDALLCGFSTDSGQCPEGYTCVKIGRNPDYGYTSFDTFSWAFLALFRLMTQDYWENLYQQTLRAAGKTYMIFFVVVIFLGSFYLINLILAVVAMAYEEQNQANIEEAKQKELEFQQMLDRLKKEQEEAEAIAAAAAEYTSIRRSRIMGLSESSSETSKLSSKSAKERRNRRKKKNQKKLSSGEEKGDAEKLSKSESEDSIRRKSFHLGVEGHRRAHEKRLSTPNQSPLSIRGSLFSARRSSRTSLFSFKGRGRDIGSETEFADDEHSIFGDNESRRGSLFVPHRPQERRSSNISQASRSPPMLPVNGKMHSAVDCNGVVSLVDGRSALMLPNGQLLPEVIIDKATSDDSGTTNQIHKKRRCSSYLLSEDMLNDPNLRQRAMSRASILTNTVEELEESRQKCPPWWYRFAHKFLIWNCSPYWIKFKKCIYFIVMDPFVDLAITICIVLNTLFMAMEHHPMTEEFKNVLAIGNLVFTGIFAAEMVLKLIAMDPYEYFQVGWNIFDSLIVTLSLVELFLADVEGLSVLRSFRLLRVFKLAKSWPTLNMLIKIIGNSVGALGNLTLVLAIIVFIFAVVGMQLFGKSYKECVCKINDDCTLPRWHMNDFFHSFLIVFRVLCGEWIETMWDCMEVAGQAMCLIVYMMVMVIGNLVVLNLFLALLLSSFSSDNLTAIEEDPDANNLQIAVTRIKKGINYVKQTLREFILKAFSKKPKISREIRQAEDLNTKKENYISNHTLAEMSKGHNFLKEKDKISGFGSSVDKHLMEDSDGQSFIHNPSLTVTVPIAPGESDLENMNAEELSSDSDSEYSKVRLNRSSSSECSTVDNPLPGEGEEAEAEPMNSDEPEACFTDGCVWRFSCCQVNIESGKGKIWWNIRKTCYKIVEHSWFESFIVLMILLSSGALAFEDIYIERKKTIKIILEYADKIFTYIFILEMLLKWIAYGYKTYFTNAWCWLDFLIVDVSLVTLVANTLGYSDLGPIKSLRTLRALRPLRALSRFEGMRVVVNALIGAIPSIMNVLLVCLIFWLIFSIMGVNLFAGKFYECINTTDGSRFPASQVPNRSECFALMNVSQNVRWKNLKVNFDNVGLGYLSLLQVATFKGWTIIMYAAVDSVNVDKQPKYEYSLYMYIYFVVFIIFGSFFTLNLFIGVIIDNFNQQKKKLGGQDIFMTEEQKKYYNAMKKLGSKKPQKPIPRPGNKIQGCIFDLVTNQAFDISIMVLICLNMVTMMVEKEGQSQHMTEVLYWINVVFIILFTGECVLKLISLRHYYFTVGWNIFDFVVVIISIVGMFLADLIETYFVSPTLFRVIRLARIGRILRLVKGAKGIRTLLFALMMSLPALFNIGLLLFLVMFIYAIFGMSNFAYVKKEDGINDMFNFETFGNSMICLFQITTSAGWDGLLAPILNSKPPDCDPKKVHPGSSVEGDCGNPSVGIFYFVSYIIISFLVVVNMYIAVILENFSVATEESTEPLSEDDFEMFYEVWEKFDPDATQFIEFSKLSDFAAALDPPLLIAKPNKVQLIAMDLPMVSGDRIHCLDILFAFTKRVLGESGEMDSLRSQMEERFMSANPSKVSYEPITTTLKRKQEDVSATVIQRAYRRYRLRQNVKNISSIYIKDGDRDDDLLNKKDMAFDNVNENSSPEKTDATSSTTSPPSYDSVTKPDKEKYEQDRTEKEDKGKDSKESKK

## O=S(=O)(Nc1nccs1)c1ccc(Nc2cc(-c3ccccc3)nn2-c2ccccc2)cc1F [Compound 154, 4-(1,3-diphenyl-1H-pyrazol-5-ylamino)-2-fluoro-N-(thiazol-2-yl)benzenesulfonamide]
hSCN3A
  IC50: < 2 µM
hSCN9A
  IC50: < 2 µM

## NC(=O)Cn1nc(Cc2ccc(Cl)cc2)cc1Nc1ccc(S(=O)(=O)Nc2nccs2)cc1 [Compound 155, 2-(3-(4-chlorobenzyl)-5-(4-(N-thiazol-2-ylsulfamoyl)phenylamino)-1H-pyrazol-1-yl)acetamide]
hSCN3A
  IC50: < 2 µM
hSCN9A
  IC50: < 2 µM

## CC(C)(C)c1cc(Nc2ccc(S(=O)(=O)Nc3nccs3)c(F)c2)n(-c2ccccc2)n1 [Compound 156, 4-(3-tert-butyl-1-phenyl-1H-pyrazol-5-ylamino)-2-fluoro-N-(thiazol-2-yl)benzenesulfonamide]
hSCN3A
  IC50: < 2 µM
hSCN9A
  IC50: < 2 µM

## Cc1cc(Nc2ccc(S(=O)(=O)Nc3nccs3)c(Cl)c2)n(-c2ccccc2)n1 [Compound 161, 2-chloro-4-(3-methyl-1-phenyl-1H-pyrazol-5-ylamino)-N-(thiazol-2-yl)benzenesulfonamide]
hSCN3A
  IC50: < 2 µM
hSCN9A
  IC50: < 2 µM

## Cc1cc(Nc2ccc(S(=O)(=O)Nc3ncc(Cl)s3)c(F)c2)n(-c2ccccc2)n1 [Compound 162, N-(5-chlorothiazol-2-yl)-2-fluoro-4-(3-methyl-1-phenyl-1H-pyrazol-5-ylamino)benzenesulfonamide]
hSCN3A
  IC50: < 2 µM
hSCN9A
  IC50: < 2 µM

## O=S(=O)(Nc1nccs1)c1ccc(Nc2ccccc2-c2ccccc2)cc1F [Compound 172, 4-(biphenyl-2-ylamino)-2-fluoro-N-(thiazol-2-yl)benzenesulfonamide]
hSCN3A
  IC50: < 2 µM
hSCN9A
  IC50: < 2 µM

## Cc1cc(Nc2ccc(S(=O)(=O)Nc3nccs3)c(F)c2)n(-c2ccccc2F)n1 [Compound 173, 2-fluoro-4-(1-(2-fluorophenyl)-3-methyl-1H-pyrazol-5-ylamino)-N-(thiazol-2-yl)benzenesulfonamide]
hSCN3A
  IC50: < 2 µM
hSCN9A
  IC50: < 2 µM

## Cc1cc(Nc2ccc(S(=O)(=O)Nc3nccs3)c(F)c2)n(-c2ccc(F)cc2Cl)n1 [Compound 182, 4-(1-(2-chloro-4-fluorophenyl)-3-methyl-1H-pyrazol-5-ylamino)-2-fluoro-N-(thiazol-2-yl)benzenesulfonamide]
hSCN3A
  IC50: < 2 µM
hSCN9A
  IC50: < 2 µM

## O=S(=O)(Nc1nccs1)c1ccc(Nc2ccn(Cc3ccc(C(F)(F)F)cc3)n2)cc1F [Compound 183, 2-fluoro-N-(thiazol-2-yl)-4-(1-(4-(trifluoromethyl)benzyl)-1H-pyrazol-3-ylamino)benzenesulfonamide]
hSCN3A
  IC50: < 2 µM
hSCN9A
  IC50: < 2 µM

## O=S(=O)(Nc1nccs1)c1ccc(Nc2ccn(Cc3ccc(Cl)cc3)n2)c(F)c1 [Compound 184, 4-(1-(4-chlorobenzyl)-1H-pyrazol-3-ylamino)-3-fluoro-N-(thiazol-2-yl)benzenesulfonamide]
hSCN3A
  IC50: < 2 µM
hSCN9A
  IC50: < 2 µM

## O=S(=O)(Nc1nccs1)c1ccc(Nc2ccn(Cc3ccc(C(F)(F)F)cc3)n2)c(F)c1 [Compound 185, 3-fluoro-N-(thiazol-2-yl)-4-(1-(4-(trifluoromethyl)benzyl)-1H-pyrazol-3-ylamino)benzenesulfonamide]
hSCN3A
  IC50: < 2 µM
hSCN9A
  IC50: < 2 µM

## COc1ccccc1-n1nc(C)cc1Nc1ccc(S(=O)(=O)Nc2nccs2)c(F)c1 [Compound 188, 2-fluoro-4-(1-(2-methoxyphenyl)-3-methyl-1H-pyrazol-5-ylamino)-N-(thiazol-2-yl)benzenesulfonamide]
hSCN3A
  IC50: < 2 µM
hSCN9A
  IC50: < 2 µM

## Cc1cc(Nc2ccc(S(=O)(=O)Nc3nccs3)c(F)c2)n(-c2c(C)cccc2C)n1 [Compound 191, 4-(1-(2,6-dimethylphenyl)-3-methyl-1H-pyrazol-5-ylamino)-2-fluoro-N-(thiazol-2-yl)benzenesulfonamide]
hSCN3A
  IC50: < 2 µM
hSCN9A
  IC50: < 2 µM

## Cn1nc(C(C)(C)C)cc1Nc1ccc(S(=O)(=O)Nc2nccs2)c(F)c1 [Compound 193, 4-(3-tert-butyl-1-methyl-1H-pyrazol-5-ylamino)-2-fluoro-N-(thiazol-2-yl)benzenesulfonamide]
hSCN3A
  IC50: < 2 µM
hSCN9A
  IC50: < 2 µM

## O=S(=O)(Nc1nccs1)c1ccc(Nc2ccn(Cc3ccc(Cl)cc3F)n2)c(F)c1 [Compound 198, 4-(1-(4-chloro-2-fluorobenzyl)-1H-pyrazol-3-ylamino)-3-fluoro-N-(thiazol-2-yl)benzenesulfonamide]
hSCN3A
  IC50: < 2 µM
hSCN9A
  IC50: < 2 µM

## O=S(=O)(Nc1nccs1)c1ccc(Nc2ncn(Cc3cccc(Cl)c3)n2)c(F)c1 [Compound 201, 4-(1-(3-chlorobenzyl)-1H-1,2,4-triazol-3-ylamino)-3-fluoro-N-(thiazol-2-yl)benzenesulfonamide]
hSCN3A
  IC50: 2 to 10 µM
hSCN9A
  IC50: < 2 µM

## O=S(=O)(Nc1nccs1)c1ccc(Nc2cc(CC(F)(F)F)nn2-c2ccccc2F)cc1F [Compound 204, 2-fluoro-4-(1-(2-fluorophenyl)-3-(2,2,2-trifluoroethyl)-1H-pyrazol-5-ylamino)-N-(thiazol-2-yl)benzenesulfonamide]
hSCN3A
  IC50: < 2 µM
hSCN9A
  IC50: < 2 µM

## O=S(=O)(Nc1nccs1)c1ccc(Nc2ccn(Cc3ccc(Cl)cc3)n2)c(Cl)c1 [Compound 205, 3-chloro-4-(1-(4-chlorobenzyl)-1H-pyrazol-3-ylamino)-N-(thiazol-2-yl)benzenesulfonamide]
hSCN3A
  IC50: < 2 µM
hSCN9A
  IC50: < 2 µM

## O=S(=O)(Nc1nccs1)c1cc(F)c(Nc2ccn(Cc3ccc(Cl)cc3)n2)cc1F [Compound 206, 4-(1-(4-chlorobenzyl)-1H-pyrazol-3-ylamino)-2,5-difluoro-N-(thiazol-2-yl)benzenesulfonamide]
hSCN3A
  IC50: < 2 µM
hSCN9A
  IC50: < 2 µM

## CCN(CC)C(=O)Cc1cc(Nc2ccc(S(=O)(=O)Nc3nccs3)c(F)c2)n(-c2ccccc2)n1 [Compound 216, N,N-diethyl-2-(5-(3-fluoro-4-(N-thiazol-2-ylsulfamoyl)phenylamino)-1-phenyl-1H-pyrazol-3-yl)ethanamide]
hSCN3A
  IC50: > 1 µM
hSCN9A
  IC50: < 2 µM

## COc1cc(Cl)ccc1-c1cc(Nc2ccc(S(=O)(=O)Nc3nccs3)c(F)c2)n(C)n1 [Compound 222, 4-(3-(4-chloro-2-methoxyphenyl)-1-methyl-1H-pyrazol-5-ylamino)-2-fluoro-N-(thiazol-2-yl)benzenesulfonamide]
hSCN3A
  IC50: < 2 µM
hSCN9A
  IC50: < 2 µM

## O=S(=O)(Nc1nccs1)c1ccc(Nc2ccn(Cc3ccc(Cl)cc3)n2)nc1 [Compound 227, 6-(1-(4-chlorobenzyl)-1H-pyrazol-3-ylamino)-N-(thiazol-2-yl)pyridine-3-sulfonamide]
hSCN3A
  IC50: < 2 µM
hSCN9A
  IC50: 2 to 10 µM

## O=S(=O)(Nc1nccs1)c1ccc(Nc2cnn(Cc3ccc(Cl)cc3)c2)nc1 [Compound 228, 6-(1-(4-chlorobenzyl)-1H-pyrazol-4-ylamino)-N-(thiazol-2-yl)pyridine-3-sulfonamide]
hSCN3A
  IC50: < 2 µM
hSCN9A
  IC50: 2 to 10 µM

## O=S(=O)(Nc1nccs1)c1ccc(Nc2ccn(Cc3ccc(Cl)cc3)n2)cn1 [Compound 235, 5-(1-(4-chlorobenzyl)-1H-pyrazol-3-ylamino)-N-(thiazol-2-yl)pyridine-2-sulfonamide]
hSCN3A
  IC50: < 2 µM
hSCN9A
  IC50: 2 to 10 µM

## O=S(=O)(Nc1ncns1)c1ccc(Nc2ccn(Cc3ccc(Cl)cc3)n2)cc1F [Compound 244, 4-(1-(4-chlorobenzyl)-1H-pyrazol-3-ylamino)-2-fluoro-N-(1,2,4-thiadiazol-5-yl)benzenesulfonamide]
hSCN3A
  IC50: < 2 µM
hSCN9A
  IC50: < 2 µM
